Assays:
Format in all cases: in vivo
male (Swiss albino) mice [1] = test: Cellular immune response (delayed hypersensitivity), ovalbumin mouse paw edema; settings: CY (+) mice, cyclophosphamide 150 mg/kg i.p., composition 200 100 mg/kg/day, levamisole 25 mg/kg oral
Method: (§1) Test subjects: the experiment was performed on healthy adult male (Swiss albino) mice, 5-6 weeks old, weighing 25±2 grams. They were nurtured to stabilize for 1 week before conducting the experiment at room temperature (27° C.-28° C.). They were fed with synthetic pellets for mice, and the drinking water was tap water.
(§2) Test sample: the composition 200 which is obtained from the example 1, and the control sample used distilled water.
(§3) Male (Swiss albino) mice were immunodeficient by intraperitoneally administering a single dose of cyclophosphamide (150 mg/kg body weight) on the first day and then orally administering the test samples continuously for 5 days.
(§4) The experiment for immune-enhancing of the composition 200 by arrangement total of 60 male mice was used for experimental (23-25 g) divided into six treatments listed in Table 5 below.
(§5) [formula] • wherein Pcq is the weight of the organ; Pct is the body weight of the mouse at the time of survey. 3) Leukocyte Count and Percentage of Leukocyte Types; • Collected tail vein blood from mice on the 5th day after CY injection. […] On the 14th day, sensitization was induced by tail vein injection with ovalbumin at a dose of 0.5 mg/kg mouse body weight. […] Measure the volume of the mouse paw at 4 hours (V1) and 24 hours (V2) after the second ovalbumin injection. The left paw that was not injected was used as the reference (Vo). […]

male (Swiss albino) mice [2] = test: Leukocyte count and percentage of leukocyte types; settings: CY (+) mice, 5th day after CY injection 150 mg/kg i.p.; composition 200 100 mg/kg/day, levamisole 25 mg/kg oral
Method: as §1, §2, §3, §4
as §5, with “(Vo). Calculate the percentage of mouse paw edema using the formula:” for “(Vo).”

male (Swiss albino) mice [3] = test: Relative weight of organs: liver, spleen, and thymus; settings: CY (+) mice, 10th day after cyclophosphamide 150 mg/kg i.p.; composition 200 100 mg/kg/day, levamisole 25 mg/kg oral
Method: as §1, §2, §3, §4
The relative weights of the organs were calculated using the following formula:
as §5, with “(Vo). Calculate the percentage of mouse paw edema using the formula:” for “(Vo).”

## c1ccc([C@H]2CN3CCSC3=N2)cc1 [levamisole]
Male (Swiss albino) mice [1]; 4 hours after second ovalbumin injection
  % V4h, percentage of the mouse paw edema after 4 hours: 81.27 ± 7.52%
Male (Swiss albino) mice [1]; 24 hours after second ovalbumin injection
  % V24 h, percentage of the mouse paw edema after 24 hours: 38.28 ± 7.12%
Male (Swiss albino) mice [2]
  % Lymphocyte: 59.56 ± 4.42%
  % Monocyte: 14.06 ± 3.64%
  % Neutrophil: 10.81 ± 1.18%
Male (Swiss albino) mice [3]
  relative weight of liver: 5.074 ± 0.189 g %
  relative weight of spleen: 0.343 ± 0.031 g %
  relative weight of thymus: 0.073 ± 0.013 g %

Reference: patent publication US12403168B1, “Method for producing a plant-based extract composition having the effect of enhancing nutrition and immunity” (priority 2024, dated 2025)
